Test results: patent US12521356B2, “Compositions and methods for treating pain, inflammation, infection, malaria, and sepsis” (Duke University, priority 2018, dated 2026)

How the values were obtained:
[1] = test system: peritoneal macrophages (pMΦ); test: Phagocytosis assay with fluorescence-labeled zymosan particles in peritoneal macrophages; format: cell-based, mouse; settings: for MΦ phagocytosis: pMΦ
Procedure: (§1) Peritoneal macrophage culture. Peritoneal macrophages were collected by peritoneal lavage with 10 ml warm PBS containing of 1 mM EDTA. Cells were incubated in DMEM supplemented with 10% FBS at 37° C. for 2 h in petri dish and washed with PBS to eliminate non-adherent cells. The adherent cells were used as peritoneal macrophages. Peritoneal macrophages were used after 3 days of culture.
Phagocytosis assay. The phagocytosis assay was modified from a previously described protocol (Sommer C, and Kress M. NeurosciLett. 2004, 361, 184-187). pHrodo® Red Zymosan Bioparticles (diameter, 3 μm, Thermo scientific, Catalog: P35364) were rinsed and reconstituted in RPMI medium. Particles were centrifuged (1 min at 100 g) onto adherent peritoneal macrophages at a ratio of 10:1 to synchronize binding and internalization. After 30 min incubation at 37° C., non-adherent beads were removed with cold PBS and cells were fixed with 2% formalin. Four optic fields were photographed with epifluorescence microscopy. Quantification of zymosan particles ingested by MΦ was conducted on at least 200 macrophages/condition/well, and triplicates were included for statistical analysis.
We investigated whether iCa^2+ increases would trigger phagocytosis of pathogens such as zymosan by macrophages. Zymosan is a well-studied pathogen and activates TLR2 to trigger inflammation and inflammatory pain in rodents after intraplantar injection. We tested phagocytosis in pMΦ using fluorescence-labeled zymosan particles.

GPR37 = target: T1, GPR37 (Mus musculus, UniProt Q9QY42); test: Ca2+ imaging (Fluo-4AM) in peritoneal macrophages (pMΦ) from WT and Gpr37−/− mice; format: cell-based; settings: for iCa2+ levels: 100 nM
T1 sequence (Q9QY42 27-600): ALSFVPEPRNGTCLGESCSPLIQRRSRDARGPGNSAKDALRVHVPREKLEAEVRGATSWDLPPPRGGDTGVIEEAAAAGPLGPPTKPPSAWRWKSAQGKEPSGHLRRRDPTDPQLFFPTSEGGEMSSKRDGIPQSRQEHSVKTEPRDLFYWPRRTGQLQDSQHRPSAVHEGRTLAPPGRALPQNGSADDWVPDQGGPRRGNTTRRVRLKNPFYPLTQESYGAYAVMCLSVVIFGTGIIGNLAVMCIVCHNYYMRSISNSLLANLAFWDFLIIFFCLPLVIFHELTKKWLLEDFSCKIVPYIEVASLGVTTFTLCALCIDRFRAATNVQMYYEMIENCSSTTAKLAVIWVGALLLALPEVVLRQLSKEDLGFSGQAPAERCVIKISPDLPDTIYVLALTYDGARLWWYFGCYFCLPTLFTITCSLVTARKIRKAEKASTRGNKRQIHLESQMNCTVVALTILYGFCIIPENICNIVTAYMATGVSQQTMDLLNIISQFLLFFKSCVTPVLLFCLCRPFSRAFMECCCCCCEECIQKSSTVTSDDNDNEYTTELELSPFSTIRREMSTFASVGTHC
Procedure: as §1
Calcium imaging. HEK 293 cells, with or without transfection of Gpr37, GPR32, ChemR23 or ALX1 cDNA, were loaded with 5 μM Fura-2AM (Invitrogen) for 1 hour and then were resuspended in normal external buffer (140 NaCl, 5 KCl, 2 CaCl2, 2 MgCl2, 10 HEPES, in mM, titrated to pH 7.4 with NaOH) or external Ca^2+-free buffer (140 NaCl, 2 MgCl2, 5 EGTA, 10 HEPES, in mM, titrated to pH 7.4 with NaOH). Peritoneal macrophages, collected from WT and Gpr37 KO mice, were loaded with 5 μM […] (Invitrogen) for 1 hour and then were resuspended in normal external buffer. Images of the HEK 293 cells and macrophages with the excitation wavelength of 340 nm and 380 nm were captured with a cooled Digital CMOS camera (ORCA-Flash 4.0, Hamamatsu Photonics K.K, Japan). The ratio of fluorescence intensity of the two wavelengths in each experiment was analyzed using MetaFluor (Molecular Devices). The Shutter speed and wavelength was controlled by Lambda DG-4 system (Sutter instrument Co., Novato, CA). Values from each of the experiments were normalized to the baseline ratio of 340/380 nm.
Next, we conducted GPR37-mediated Ca^2+ imaging in native pMΦ from WT and Gpr37^−/− mice using Fluo-4AM as a Ca^2+ indicator, since this dye works better than Fura-2AM for pMΦ. […] As compared to iCa^2+ increase in GPR37-expressing HEK293 cells, NPD1 trigger a slow-onset but more persistent Ca^2+ response in pMΦ (FIG. 2B and FIG. 2G). A relatively rapid calcium response in HEK293 cells may result from over-expression of GPR37. A sustained iCa^2+ increase in pMΦ may result from the expression of transient receptor potential (TRP) ion channels in these immune cells. It is noteworthy that macrophages express TRPV2 or TRPM2, which are involved in phagocytosis during bacterial infection. […] NPD1-triggered iCa^2+ increase in pMΦ is also Gi-dependent, since PTX blocked this increase (FIG. 2H). For comparison, ATP-evoked iCa^2+ increase was not altered in GPR37-deficient pMΦ (FIG. 2H).

iCa2+ levels (GPR37; pMΦ) | iCa2+ increase (GPR37; 30 nM, WT pMΦ) | EC50 (GPR37; pMΦ, dose response, read-out: EC50 of iCa2+ increase) [nM] | SMILES | MΦ phagocytosis [1] | NPD1-evoked increases in phagocytic activity ([1]; Gpr37-deficient MΦ) | percentage of pMΦ showing the phagocytosis of zymosan particles ([1]; wild-type pMΦ) | phagocytic activity (zymosan particles in pMΦ) ([1]; wild-type pMΦ, 30 nM for 30 min)
did not alter iCa^2+ levels | – | – | CC/C=C\C[C@H](O)/C=C/C=C\C=C\C=C\[C@@H](O)[C@@H](O)C/C=C\CCC(=O)O [RvD1] | induced | – | – | –
did not alter iCa^2+ levels | – | – | CC[C@@H](O)/C=C/C=C\C[C@@H](O)/C=C/C=C/C=C\[C@@H](O)CCCC(=O)O [RvE1] | induced | – | – | –
– | robust and sustained iCa^2+ increase | 19.5 | CC/C=C\C[C@H](O)\C=C/C=C/C=C/[C@H](O)C/C=C\C/C=C\CCC(=O)O [NPD1, neuroprotectin D1] | – | abolished | increased | dose-dependent increase in phagocytic activity
